Results from PMC13267113 (npj Drug Discovery, 2025).

How the values were obtained:
CHO-K1 (hamster, ovary) = assay: MTT cytotoxicity CHO-K1; format: cell-based; conditions: CHO-K1, 72 h, n = 3
Protocol: All cell types were cultivated at 37 °C with 5% CO2. HepG2, HEK293, HCT116, CHO-K1, HeLa-CCL-2 and Huh-7.5 were purchased from ATCC. The respective cell media (Gibco) were supplemented with 10% FBS (Gibco) before usage. Cells were used between passages #5 and #30. To obtain biological repeats, cells were split separately for at least two passages.
(§1) Cells were washed with PBS and 0.5 mL trypsin was added. Afterwards, cells were incubated for 5 min before adding 10 mL medium containing 10% FBS. Per well, 120 µL cell suspension (5 × 10^4 cells/mL) was seeded in transparent 96-well cell bind plates and incubated for 2 h (37 °C, 5% CO2). A dilution series (1:3) of test compounds was prepared in respective media containing 10% FBS and added (60 µL) to the prepared cell plate. Cells were incubated for a further 72 h (37 °C, 5% CO2). Next, 20 µL MTT (5 mg/mL in PBS) was added to each well and incubated for 2 h (37 °C, 5% CO2). The wells were emptied and 100 µL isopropanol/10 N HCl (1000:4) per well was added.
(§2) The plates were analyzed by measuring the absorbance at 570 nm (plate reader Infinite® 200 Pro, Tecan). After normalization of data to the respective solvent controls, the calculated percentage of growth inhibition was plotted using GraphPad Prism software (version 10.0.2).

[1] = system: U2OS (human, osteosarcoma); assay: MTT cytotoxicity U2OS; format: cell-based; conditions: 72 h, n = 3
Protocol: as §1, §2

[2] = target: T1, scavenger receptor class B member 1 (SCARB1) (Homo sapiens, UniProt Q8WTV0); assay: Affinity-based protein profiling (AfBPP), SCARB1; format: binding; conditions: 12.5 µM pre-treatment before Cysto-354 (2.5 µM), HepG2, n = 4
T1 construct: endogenous in cells; host or cells: HepG2
T1 sequence (Q8WTV0 1-509 isoform Q8WTV0-2): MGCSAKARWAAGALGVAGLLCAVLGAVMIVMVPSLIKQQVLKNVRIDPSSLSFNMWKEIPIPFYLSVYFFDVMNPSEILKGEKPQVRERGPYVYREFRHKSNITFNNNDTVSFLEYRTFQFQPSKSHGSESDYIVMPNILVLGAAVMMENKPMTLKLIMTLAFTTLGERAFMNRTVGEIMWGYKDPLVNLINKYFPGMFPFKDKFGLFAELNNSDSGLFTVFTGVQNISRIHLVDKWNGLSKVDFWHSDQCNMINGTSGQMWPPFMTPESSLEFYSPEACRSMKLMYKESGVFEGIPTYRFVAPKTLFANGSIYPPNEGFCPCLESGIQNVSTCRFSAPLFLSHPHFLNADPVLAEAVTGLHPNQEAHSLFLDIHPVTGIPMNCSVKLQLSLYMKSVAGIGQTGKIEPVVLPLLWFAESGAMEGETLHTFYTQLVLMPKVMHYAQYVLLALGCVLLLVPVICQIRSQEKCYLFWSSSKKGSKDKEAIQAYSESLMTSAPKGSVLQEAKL
Protocol: Cells were seeded in 100 mm cell-bind petri dishes with a concentration of 2.8 × 10^6 cells per sample and incubated (37 °C, 5% CO2) for 3 days to reach ~80% confluence. Cells were washed with warm PBS prior to compound addition. Compound solutions as well as the DMSO control were generally added as freshly prepared solutions in pre-warmed, serum-free culture medium. Affinity-based proteome profiling was performed by treating the respective cell line with Cysto-354 (2.5 µM) for 3 h. For competition samples, cells were treated with CN-861-2 (12.5 µM) for 1 h, prior to addition of photo-probe Cysto-354 (2.5 µM) for 3 h incubation time. Control samples were treated with DMSO. Afterwards, cells were UV-irradiated for 10 min on ice, scraped off and transferred to Eppendorf tubes for washing with 1 mL cold PBS (centrifuge 5 min, 500g, 4 °C). The cell pellet was stored at −80 °C until lysis. Further sample preparation was done as previously described. […]
Peptides were measured and online-separated using an UltiMate 3000 nano HPLC system (Dionex) coupled to a Bruker timsTOF Pro mass spectrometer via a CaptiveSpray nano-electrospray ion source and Sonation column oven. […]
MS raw data was analyzed using MaxQuant software (version 2.0.3.0) and peptides were searched against Uniprot database for Homo sapiens (taxon identifier: 9606, downloaded on 11.03.2022, canonical, reviewed). […]

CO[C@H](C(N)=O)[C@H](NC(=O)c1ccc(NC(=O)c2ccc(C#N)cc2)cc1)C(=O)Nc1ccc(C(=O)Nc2ccc(C(=O)Nc3ccc(C(=O)O)cc3)c(O)c2OC(C)C)cc1 [CN-861-2]
IC50 (CHO-K1 (hamster, ovary)): > 20 µM | IC50 [1]: > 20 µM | competition of SCARB1 enrichment [2]: significant competition
